Assay results: patent publication US20020102893A1, “ANTI-TACK SPANDEX FIBERS CONTAINING ANTIMICROBIAL AGENTS THEREIN AND FABRICS MADE THEREFROM” (priority 2000, published 2002)

How the values were obtained:
[1] = Discoloration (photoreduction) of spandex yarns after exposure to indoor fluorescent light; type: physicochemical; conditions: after 1 month under typical indoor (fluorescent) light; antimicrobial within spandex yarn
Procedure: The Example spandex yarns were also tested for discoloration (photoreduction) after exposure to typical indoor (fluorescent) light after 1 month of such storage. […] Thus, for this purpose AlphaSan®-type antimicrobials are most preferred. […] Thus, for anti-tack, discoloration, and resiliency within and on the target spandex yarns, the AlphaSan® antimicrobials are, again, most preferred. The discoloration results are as follows, again with a non-antimicrobial control for comparison: […]

[2] = no test described; cited from earlier work

For Oc1cc(Cl)ccc1Oc1ccc(Cl)cc1Cl [triclosan], the “discoloration (photoreduction) performance, in words” value [1] is given as “excellent colorations” and the water solubility [2] is given as “highly water soluble”.
